Measured values: PubChem BioAssay (NCI)
Several values for one entry are separate records, joined by “and”; a condition that tells them apart may be missing. Equal entries are not always repeated.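 Step 1: Grow cells in 96-well plates. Step 2: Expose to compound for 48 hours at 5 concentrations. Step 3: Interpolate endpoints linearly; if unreached, use highest concentration. GI50 is the concentration that inhibits growth by half. TGI marks complete inhibition of growth.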

Key:
Test in all cases: inhibition of tumour cell growth, NCI panel, 48 h
[1] = test system: HCT-116 colon
[2] = test system: UACC-62 melanoma
[3] = test system: A498 renal
[4] = test system: NCI/ADR-RES ovarian
[5] = test system: HT29 colon
[6] = test system: HOP-92 NSCLC
[7] = test system: SR leukemia
[8] = test system: TK-10 renal
[9] = test system: CCRF-CEM leukemia
[10] = test system: COLO 205 colon

| Structure (SMILES) | GI50 [1] | TGI [1] | GI50 [2] [µM] | TGI [2] [µM] | GI50 [3] | TGI [3] | GI50 [4] | TGI [4] [µM] | GI50 [5] | TGI [5] [µM] | GI50 [6] | TGI [6] | GI50 [7] | TGI [7] [µM] | GI50 [8] [µM] | TGI [8] [µM] | GI50 [9] | TGI [9] [µM] | GI50 [10] | TGI [10] |
| --- | --- | --- | --- | --- | --- | --- | --- | --- | --- | --- | --- | --- | --- | --- | --- | --- | --- | --- | --- | --- |
| Cc1cc2nc(-c3c(F)cccc3Cl)n(Cc3c(F)cccc3Cl)c2cc1C | 6.43 µM | 20.3 µM | 6.41 | 19.3 | 15.5 µM | 32.2 µM | 12.5 µM | 26.3 | 10.5 µM | > 100 | 14 µM | 33.5 µM | 17.5 µM | > 100 | 15.1 | 46.5 | 2.6 µM | > 100 | 11.6 µM | 26.3 µM |
| COc1cc(-c2cc(=O)c3c(O)c(OC)c(OC)c(OC)c3o2)cc(OC)c1OC |  | > 44.9 µM |  | > 100 |  | 9.14 µM |  | > 100 |  | > 100 |  | 27.3 µM |  | > 100 |  | > 57.6 |  | > 100 |  | > 100 µM |
| C=CC(C)(O)CC/C=C(\CO)C(=O)OC1C(C)OC(O[C@](C)(C=C)CC/C=C(\CO)C(=O)O[C@H]2C[C@@]3(C(=O)OC4OC(CO)C(O)C(O)C4OC4OC(C)C(OC5OC(CO)C(O)C5O)C(OC5OC(CO)C(O)C(O)C5O)C4O)C(CC2(C)C)C2=CCC4[C@@]5(C)CC[C@H](OC6OC(COC7OC(C)C(O)C(O)C7OC7OCC(O)C(O)C7O)C(O)C(O)C6NC(C)=O)C(C)(C)C5CC[C@@]4(C)[C@]2(C)C[C@H]3O)C(O)C1O (stereo partly drawn) | 0.143 µM | 6.93 µM | 0.687 | 5.28 | 0.142 µM | 0.585 µM | 2.68 µM | 7.84 | 1.42 µM | 6.06 | 0.0736 µM | 0.794 µM | 1.59 µM | 15.1 | 0.097 | 0.237 | 0.125 µM | 7.55 | 0.168 µM | 0.927 µM |
| N#C/C(=C\c1ccc2[nH]ccc2c1)C(=O)c1ccc(O)c(O)c1 |  | > 100 µM |  | > 100 |  | > 100 µM |  | > 100 |  | > 100 |  | > 100 µM |  | > 100 |  | > 100 |  | > 85 |  | > 100 µM |
| O=C(C=C=Nc1ccccc1)C(=O)N=C=Cc1ccccc1 | 1.55 µM | 3.84 µM | 4.26 | 12.6 | 16 µM | 34 µM | 2.95 µM | 14.7 | 1.89 µM | 4.74 | 5.57 µM | 20.1 µM | 0.298 µM | > 100 | 2.52 | 6.83 | 0.724 µM | > 100 | 1.89 µM | 3.87 µM |
| CCOC(=O)c1c(C)n(Cc2ccccc2)c2c1cc1oc(=O)c(=O)n3cnc2c13 | 7.36 µM | 15.3 µM | 16.6 | > 50 | 11 µM | 49.8 µM | 18.5 µM | > 50 | 18.3 µM | > 50 | 2.83 µM | 20.1 µM | 7.99 µM | > 50 | 15.7 | 42.6 |  |  | 12.8 µM | 30.6 µM |
| O=C(NOCCO)c1cc(CN2OCCCC2=O)c(F)c(F)c1Nc1ccc(I)cc1F | 0.0171 µM and 0.0207 µM | 28.6 µM and > 10 µM | < 0.01 |  | < 0.01 µM and 0.00948 µM | 0.0355 µM and 0.115 µM | 19.4 µM and > 10 µM | > 100 | < 0.01 µM and 0.0029 µM | > 42.7 | 0.0223 µM and 0.0177 µM | 0.688 µM and 0.436 µM | 19.9 µM and > 10 µM | > 100 |  | > 100 | 39.5 µM and > 10 µM | > 100 | < 0.01 µM and 0.00219 µM | 14.9 µM and > 10 µM |
| CC(C(N)=O)N(C)C(=O)c1cnc2ccccc2c1 (stereo not drawn) |  | > 100 µM |  | > 100 |  | > 100 µM |  | > 100 |  | > 100 |  | > 100 µM |  | > 100 |  | > 100 |  | > 100 |  | > 100 µM |
| Cn1cc(C2=C(c3cn(CCCCC(=N)N)c4ccccc34)C(=O)NC2=O)c2ccccc21 | 17.5 µM | > 25 µM | > 25 | > 25 | > 25 µM | > 25 µM | > 25 µM | > 25 | > 22.9 µM | > 25 | > 25 µM | > 25 µM | 11.1 µM | > 25 | > 25 | > 25 | 11.5 µM | > 25 | 11.8 µM | > 25 µM |
| COc1ccc(C(=O)c2cc3c(N)c(C(=O)Nc4cccc(OC)c4)sc3nc2C)cc1 | 0.368 µM | > 100 µM | 0.594 | > 100 | 0.393 µM |  | 0.515 µM | > 100 | 0.472 µM | > 100 | 2.39 µM | > 100 µM | 0.203 µM |  | > 100 | > 100 | 0.363 µM | > 100 | 1 µM | > 59 µM |
| Cc1cc(Nc2nc(-c3ccncc3)nc3ccccc23)n[nH]1 | 1.99 µM | > 100 µM |  |  | 0.654 µM | 6.01 µM | 11.1 µM | > 100 | 2.88 µM | > 100 | 4.39 µM | > 100 µM | 1.72 µM | 47.7 | 2.07 | > 100 | 25.2 µM | > 100 | 2.17 µM | 6.4 µM |
| CN1CCN(c2ccc3nc(-c4ccc(OCCCCN5CCN(CCCCN6C(=O)c7cccc8cccc(c78)C6=O)CC5)cc4)[nH]c3c2)CC1 | > 100 µM | > 100 µM | 40.7 | > 100 | > 100 µM | > 100 µM | > 100 µM | > 100 | 86.4 µM | > 100 | 71.4 µM | > 100 µM | 12.9 µM | > 100 | 37.4 | > 100 | 47.8 µM | > 100 | 96.8 µM | > 100 µM |
| Cc1cc(Br)cc(C)c1NC(=O)C(=O)Nn1c(=S)[nH]c2ccccc2c1=O |  | > 100 µM |  | > 100 |  | > 100 µM |  | > 100 |  | > 100 |  | > 100 µM |  | > 100 |  | > 100 |  | > 100 |  |  |
| CC(N1CCOCC1)C(O)(c1ccccc1)c1ccccn1 (stereo not drawn) |  | > 100 µM |  | > 100 |  | > 100 µM |  | > 100 |  | > 100 |  | > 100 µM |  | > 100 |  | > 100 |  |  |  | > 100 µM |
| O=C(CCCCCCCCC(=O)N/N=C\c1cc(Cl)ccc1O)N/N=C\c1cc(Cl)ccc1O | 0.308 µM | > 100 µM | 0.235 |  | > 33.1 µM | > 80.9 µM | 0.294 µM |  | > 25.5 µM | > 100 | 0.105 µM | 37.5 µM | 0.0955 µM | 16.7 | 3.89 | > 75.5 | 0.172 µM | 24.6 | 3.19 µM | > 100 µM |
